What follows are cell lines tested with O=C1NC(=O)[C@@H](c2cn3c4c(cccc24)CCC3)[C@@H]1c1c[nH]c2ccccc12 [Tivantinib] + CC(=O)Nc1cccc(-n2c(=O)n(C3CC3)c(=O)c3c(Nc4ccc(I)cc4F)n(C)c(=O)c(C)c32)c1 [Trametinib] (partner 0.02 µM) (assay: relative viability (nuclei count vs DMSO), 5 days (fraction); higher = more cells survive). Details: first compound 0.3162 µM.
Outline: (§1)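 Five library-drug doses in √10 steps were combined with a fixed anchor-drug dose, or a single drug was given alone, by pin tool to lung cancer cell lines in 1536-well plates the day after seeding. Nuclei were stained and counted after 5 days. Relative viability is the nuclei count in treated wells over that in vehicle wells, taken as the median of duplicate plates.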

In order of rising relative viability:
1. NCI-H2087  0.172
2. NCI-H3122  0.202
3. NCI-H1648  0.31
4. HCC-366  0.332
5. HCC-15  0.337
6. NCI-H441  0.352
7. COR-L 105  0.356
8. NCI-H647  0.369
9. HARA  0.371
10. HCC-78  0.445
11. LK-2  0.518
12. LU99A  0.521
13. NCI-H1650  0.536
14. NCI-H2126  0.545
15. SK-MES-1  0.582
16. COR-L23  0.661
17. NCI-H2342  0.665
18. LXF-289  0.669
19. LOU-NH91  0.691
20. SW 900  0.763
21. BEN  0.769
22. ChaGo-K-1  0.842
23. LC-2-ad  0.903
24. HCC-44  1.02

What follows are cell lines tested with O=C1NC(=O)[C@@H](c2cn3c4c(cccc24)CCC3)[C@@H]1c1c[nH]c2ccccc12 [Tivantinib] + CCNC(=O)c1noc(-c2cc(C(C)C)c(O)cc2O)c1-c1ccc(CN2CCOCC2)cc1 [Luminespib] (partner 0.01 µM) in the same assay as above. Details: first compound 0.01 µM.
Outline: as §1

In order of rising relative viability:
1. NCI-H3122  0.0944
2. NCI-H647  0.155
3. NCI-H2087  0.165
4. SW 900  0.191
5. NCI-H1650  0.203
6. NCI-H1734  0.206
7. LK-2  0.217
8. HCC-15  0.246
9. NCI-H838  0.276
10. LU99A  0.277
11. NCI-H441  0.343
12. BEN  0.361
13. LOU-NH91  0.373
14. EPLC-272H  0.374
15. ABC-1  0.43
16. HCC-827  0.472
17. NCI-H1623  0.504
18. NCI-H1563  0.52
19. NCI-H2170  0.527
20. COR-L23  0.625
21. ChaGo-K-1  0.679
22. COR-L 105  0.708
23. NCI-H2342  0.741
24. LXF-289  0.757
25. SK-MES-1  0.763
26. NCI-H1651  0.768
27. LCLC-97TM1  0.773
28. HARA  0.909
29. NCI-H2126  0.978
30. NCI-H2009  0.989
31. LC-2-ad  0.995
32. NCI-H596  1.01
33. HCC-44  1.13
34. EMC-BAC-2  1.17
35. NCI-H522  1.33

Same assay, conditions: first compound 0.03162 µM

In order of falling relative viability:
1. EMC-BAC-2  1.17
2. LC-2-ad  1.17
3. NCI-H2009  1.08
4. NCI-H1651  1.02
5. NCI-H596  1.01
6. HCC-44  1
7. NCI-H522  0.989
8. ABC-1  0.944
9. NCI-H2126  0.886
10. COR-L 105  0.835
11. LCLC-97TM1  0.788
12. SK-MES-1  0.747
13. NCI-H2342  0.739
14. COR-L23  0.685
15. HCC-827  0.661
16. LXF-289  0.646
17. NCI-H2170  0.594
18. HARA  0.592
19. NCI-H1623  0.553
20. ChaGo-K-1  0.539
21. NCI-H1563  0.517
22. LOU-NH91  0.369
23. NCI-H441  0.359
24. NCI-H838  0.308
25. HCC-15  0.285
26. BEN  0.262
27. LU99A  0.26
28. EPLC-272H  0.23
29. NCI-H1734  0.198
30. NCI-H1650  0.191
31. NCI-H2087  0.182
32. SW 900  0.177
33. PC-14  0.152
34. NCI-H2228  0.152
35. NCI-H647  0.141
36. NCI-H3122  0.103

Same assay, conditions: first compound 0.1 µM

In order of rising relative viability:
1. NCI-H3122  0.0763
2. NCI-H1734  0.0957
3. NCI-H2087  0.139
4. NCI-H647  0.14
5. PC-14  0.152
6. SW 900  0.162
7. NCI-H2228  0.168
8. NCI-H1650  0.203
9. LK-2  0.208
10. BEN  0.232
11. LU99A  0.235
12. NCI-H441  0.27
13. NCI-H838  0.302
14. LOU-NH91  0.309
15. ABC-1  0.339
16. EPLC-272H  0.431
17. HCC-15  0.456
18. NCI-H1563  0.478
19. NCI-H1623  0.545
20. ChaGo-K-1  0.576
21. LXF-289  0.599
22. COR-L23  0.661
23. NCI-H2170  0.672
24. LCLC-97TM1  0.673
25. HCC-827  0.699
26. NCI-H2342  0.716
27. HARA  0.738
28. NCI-H1651  0.764
29. COR-L 105  0.873
30. NCI-H2126  0.884
31. NCI-H522  0.93
32. LC-2-ad  0.94
33. HCC-44  0.954
34. NCI-H2009  0.985
35. NCI-H596  1.08
36. EMC-BAC-2  1.18

Same assay, conditions: first compound 0.3162 µM

In order of rising relative viability:
1. NCI-H3122  0.0784
2. NCI-H2228  0.125
3. NCI-H647  0.135
4. NCI-H2087  0.137
5. SW 900  0.145
6. PC-14  0.15
7. EPLC-272H  0.19
8. NCI-H1734  0.191
9. NCI-H1650  0.192
10. LK-2  0.197
11. LU99A  0.208
12. HCC-15  0.289
13. NCI-H838  0.335
14. NCI-H441  0.337
15. LOU-NH91  0.367
16. HCC-827  0.378
17. BEN  0.385
18. NCI-H1563  0.534
19. ChaGo-K-1  0.597
20. NCI-H2342  0.598
21. HCC-44  0.634
22. ABC-1  0.675
23. NCI-H522  0.685
24. HARA  0.689
25. LXF-289  0.723
26. COR-L 105  0.742
27. NCI-H2126  0.745
28. COR-L23  0.757
29. LCLC-97TM1  0.764
30. NCI-H1651  0.77
31. SK-MES-1  0.828
32. LC-2-ad  0.906
33. NCI-H596  0.935
34. EMC-BAC-2  1.08
35. NCI-H2009  1.1

What follows are cell lines tested with O=C1NC(=O)[C@@H](c2cn3c4c(cccc24)CCC3)[C@@H]1c1c[nH]c2ccccc12 [Tivantinib] + C[C@]1(O)C[C@@H](c2nc(-c3ccc4ccc(-c5ccccc5)nc4c3)c3c(N)nccn32)C1 [Linsitinib] (partner 1 µM) in the same assay as above. Details: first compound 0.01 µM.
Outline: as §1

In order of falling relative viability:
1. NCI-H1563  1.22
2. NCI-H2009  1.16
3. NCI-H647  1.15
4. SK-MES-1  1.13
5. EPLC-272H  1.07
6. NCI-H596  1.05
7. HARA  1.05
8. HCC-827  1.03
9. Calu-6  1.02
10. NCI-H838  1.01
11. BEN  0.998
12. LXF-289  0.982
13. NCI-H2087  0.962
14. PC-14  0.941
15. NCI-H1299  0.941
16. NCI-H3122  0.939
17. NCI-H1651  0.937
18. NCI-H1734  0.937
19. LC-2-ad  0.917
20. COR-L23  0.914
21. EBC-1  0.902
22. HCC-15  0.89
23. LOU-NH91  0.859
24. EMC-BAC-2  0.842
25. NCI-H1703  0.828
26. COR-L 105  0.824
27. LK-2  0.816
28. ABC-1  0.767
29. NCI-H2126  0.713
30. HCC-44  0.707
31. A549  0.691
32. NCI-H2228  0.639
33. HCC-366  0.634
34. IA-LM  0.593
35. HCC-78  0.553
36. LU99A  0.537
37. NCI-H441  0.383
38. LCLC-97TM1  0.176

Same assay, conditions: first compound 0.03162 µM

In order of rising relative viability:
1. LCLC-97TM1  0.174
2. HCC-78  0.422
3. NCI-H1703  0.456
4. NCI-H441  0.508
5. NCI-H2228  0.538
6. LU99A  0.54
7. HCC-366  0.543
8. A549  0.545
9. HCC-44  0.589
10. EBC-1  0.626
11. NCI-H2126  0.677
12. COR-L 105  0.695
13. BEN  0.725
14. LC-2-ad  0.772
15. NCI-H2087  0.795
16. HCC-15  0.796
17. EMC-BAC-2  0.808
18. ABC-1  0.826
19. NCI-H1734  0.846
20. HARA  0.882
21. COR-L23  0.884
22. LOU-NH91  0.884
23. PC-14  0.923
24. NCI-H3122  0.946
25. NCI-H1299  0.946
26. LXF-289  0.971
27. HCC-827  0.991
28. NCI-H1651  1.01
29. SK-MES-1  1.03
30. NCI-H838  1.04
31. Calu-6  1.04
32. NCI-H596  1.05
33. NCI-H2009  1.19
34. NCI-H647  1.19
35. EPLC-272H  1.22
36. NCI-H1563  1.25

Same assay, conditions: first compound 0.1 µM

In order of rising relative viability:
1. LCLC-97TM1  0.174
2. HCC-78  0.477
3. LK-2  0.497
4. NCI-H2228  0.519
5. LU99A  0.523
6. A549  0.539
7. HCC-366  0.542
8. ABC-1  0.557
9. NCI-H441  0.563
10. IA-LM  0.586
11. NCI-H2126  0.671
12. HCC-44  0.745
13. EMC-BAC-2  0.768
14. NCI-H1703  0.783
15. BEN  0.826
16. LC-2-ad  0.837
17. NCI-H1734  0.839
18. EBC-1  0.842
19. HCC-15  0.857
20. COR-L23  0.862
21. HARA  0.882
22. LXF-289  0.906
23. NCI-H1299  0.92
24. PC-14  0.931
25. NCI-H2087  0.951
26. LOU-NH91  0.958
27. HCC-827  0.96
28. NCI-H3122  0.973
29. NCI-H838  0.975
30. SK-MES-1  0.98
31. COR-L 105  0.985
32. NCI-H1651  1.04
33. NCI-H596  1.05
34. NCI-H1563  1.07
35. NCI-H647  1.12
36. NCI-H2009  1.15
37. EPLC-272H  1.19

Same assay, conditions: first compound 0.3162 µM

In order of rising relative viability:
1. LCLC-97TM1  0.14
2. HCC-78  0.286
3. HARA  0.303
4. LK-2  0.355
5. A549  0.368
6. LU99A  0.384
7. NCI-H441  0.463
8. LOU-NH91  0.536
9. IA-LM  0.538
10. NCI-H2126  0.578
11. COR-L 105  0.578
12. HCC-366  0.585
13. NCI-H2228  0.627
14. HCC-44  0.641
15. ABC-1  0.646
16. EMC-BAC-2  0.666
17. NCI-H1703  0.687
18. BEN  0.693
19. LC-2-ad  0.741
20. NCI-H1651  0.814
21. SK-MES-1  0.82
22. COR-L23  0.848
23. NCI-H1734  0.85
24. EBC-1  0.86
25. PC-14  0.892
26. HCC-15  0.911
27. LXF-289  0.927
28. EPLC-272H  0.931
29. NCI-H2087  0.944
30. HCC-827  0.953
31. Calu-6  0.963
32. NCI-H3122  0.968
33. NCI-H838  0.984
34. NCI-H596  1.04
35. NCI-H1299  1.04
36. NCI-H1563  1.1
37. NCI-H2009  1.17
38. NCI-H647  1.19
